Positions of bridges follow the written chain, without caps; N, C: chain ends. Non-standard residues stand in square brackets, D forms with d. Residues, ends and D or L forms follow the SMILES beside them. R8 = C=CCCCCCC[C@@](C)(N)C(=O)O; S5 = C=CCCC[C@](C)(N)C(=O)O
Key:
[1] = target: T1, PTBP1 RRM12 (Homo sapiens, UniProt P26599); assay: Competitive fluorescence polarization assay between RRM12 and RNA-2; format: binding; conditions: Fig. 2C, 5 nM FAM-RNA-2, protein at 50-70 % probe binding, FP buffer pH 8.0, 20 °C, 30 min, n.b. given for inactive peptides; for Ki: read-out: Ki, competitive FP assay between RRM12 and RNA-2
T1 construct: (P57-V265); MBP (from pMAL vector); His tag; made in house; host or cells: E. coli BL21 DE3 RIL
T1 sequence (P26599 57-265): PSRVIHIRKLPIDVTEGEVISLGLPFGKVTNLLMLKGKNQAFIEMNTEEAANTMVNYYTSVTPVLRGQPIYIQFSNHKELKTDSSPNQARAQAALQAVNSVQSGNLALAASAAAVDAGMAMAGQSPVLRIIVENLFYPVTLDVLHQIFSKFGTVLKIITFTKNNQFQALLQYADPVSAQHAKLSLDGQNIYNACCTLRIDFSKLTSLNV
Text: (§1) For the initial design we used the i, i + 4 strategy where two (S)-pentenyl alanines (S5) were introduced in positions with three other amino acids in between. We picked three different amino acid pairs to replace with the S5 amino acids based on their orientation as observed in the NMR structures (P-2, P-3 and P-4, Fig. 2B and C).[25] To prevent the staple from disturbing the interaction between the ligand and the protein we chose positions facing away from the binding site forming the pairs Ala145/Ala149, Gln148/Gln152, and Ala149/Ala153. The three peptides were synthesized on Rink amide resin and the linear peptides were treated with a Grubbs catalyst to connect the S5 residues. To avoid a mixture of E/Z-diastereomers we reduced the alkene in the linker of the staple using a solution phase hydrogenation protocol.[43] The linear equivalent P-1 was synthesized for comparison but had to be extended on the C-terminus with an arginine residue to improve its solubility. The C-terminus is away from the binding surface and this modification was therefore not expected to have an impact on the binding affinity. The peptides were tested in a competitive fluorescence polarization assay using the RRM12 construct and RNA-2 (Fig. 2C and S2 ^†). […] As the staple is expected to stabilize the α-helical conformation we used circular dichroism (CD) spectroscopy to evaluate the helicity of the peptides. […] It is possible that although P-4 was more helical than P-3, the replacement of Gln148 with the hydrophobic linker disturbed the interaction since the side chain amide potentially interacts with the RRM1 surface. […]
size exclusion chromatography (Superdex 75 16/60 or 26/60) with SEC buffer (50 mM Tris, 200 mM NaCl). Protein homogeneity was assessed by the size exclusion chromatogram and purity was checked by SDS-PAGE analysis to be >= 90%.
The gene encoding for SRSF1-RRM12 (1-195) was subcloned into pOPIN-His expression vector and expressed in E. coli BL21 (DE3). A pre-culture of transformed bacteria was made followed by expression in LB-Medium (100 µg/ml Ampicillin, 1 mM IPTG, 18 °C, 160 rpm overnight) after growing the culture at 37 °C, 160 rpm to an OD600 of 0.6. The harvested cells (5000 x g, 4 °C, 15 min) were resuspended in Buffer ASRSF1 (50 mM Na2HPO4 pH 8.0, 300 mM KCl, 50 mM L-Arg, 50 mM L-Gly, 1.5 mM MgCl2) supplemented with 1 mM PMSF followed by lysis through sonification. The protein was purified using a HisTrap HP 5 ml column (GE-Healthcare) using a gradient of Buffer BSRSF1 (50 mM Na2HPO4 pH 8.0, 300 mM KCl, 50 mM L-Arg, 50 mM L-Gly, 1.5 mM MgCl2, 500 mM Imidazole) followed by dialysis into wash buffer (50 mM Na2HPO4 pH 8.0, 300 mM KCl, 50 mM L-Arg, 50 mM L-Gly, 1.5 mM MgCl2, 40 mM Imidazole) and a second run of the affinity column. The protein containing fractions were afterwards dialyzed into wash buffer with tag-cleavage using His-tagged 3C protease. The cleaved construct was subsequently used for a third affinity column run collecting the unbound fraction which was dialyzed into storage buffer (20 mM Na2HPO4 pH 8.0, 150 mM KCl, 50 mM L-Arg, 50 mM L-Gly, 1.5 mM MgCl2, 0.2 mM EDTA, 1 mM TCEP).
Purification of hnRNP A2/B1
The MBP-tagged hnRNP A2/B1 construct (1-251) was expressed from a pOPIN-His-MBP vector in E. coli BL21 (DE3) RIPL cells. A pre-culture in TB (0.01% lactose, 2mM MgSO4, 100 µg/ml ampicillin, 50 µg/ml chloramphenicol) was used to inoculate the expression culture with a starting OD600 of 0.05 at 37 °C. Expression was autoinduced at 37 °C for 4 h followed by expression over night at 25 °C. Harvested cells (5000 x g, 15 min, 4 °C) were resuspended in Buffer AhnRNPA2/B1 (50 mM HEPES pH 8.0, 300 mM NACl, 20 mM Imidazole, 1 mM TCEP) supplemented with 1 mM PMSF) and lysed with a microfluidizer.
Immobilized metal affinity chromatography was performed using a HisTrap FF crude 5 ml column. The loaded protein was washed with wash buffer (50 mM HEPES pH 8.0, 300 mM NaCl, 30 mM Imidazole, […]

[2] = Helicity by circular dichroism spectroscopy; format: physicochemical; conditions: 50 µM peptide, 20 mM sodium phosphate pH 8.0, 10 mM NaF, 20 °C, triplicates, JASCO multivariate secondary structure analysis
Text: as §1
performed in FP bufferPTBP1. […]
serially diluted in the same buffer. […]
a final concentration of 10 nM probe. […]
the settings mentioned previously.
Fluorescence polarization assay with SRSF1
Fluorescence polarization was
Fluorescence polarization assay with hnRNPA2/B1
For the competitive assay 10 nM
Microscale thermophoresis […]
afterwards serially diluted into FP buffer.
The data was evaluated at […]
experiments were performed in duplicates.
Circular Dichroism Spectroscopy […]

Compound | Ki, competitive FP assay between RRM12 and RNA-2 [1] | Ki [1] [µM] | Helicity by CD spectroscopy [2] [%]
CC(=O)N[C@@H](CC(N)=O)C(=O)N[C@@H](CCC(N)=O)C(=O)N[C@@]1(C)CCCC=CCCCC2(CCCC=CCCC[C@](C)(C(=O)N[C@H](C(=O)N[C@@H](CC(N)=O)C(N)=O)C(C)C)NC(=O)[C@H](CCC(N)=O)NC(=O)[C@H](CC(N)=O)NC(=O)[C@H](C)NC2=O)NC(=O)[C@H](CCC(N)=O)NC(=O)[C@H](C)NC(=O)[C@H](CCCNC(=N)N)NC1=O (stereo partly drawn) [Peptide P-9] | n.b. | – | –
CC(=O)N[C@@H](CC(N)=O)C(=O)N[C@@H](CCC(N)=O)C(=O)N[C@@]1(C)CCCC=CCCCC2(CCCC=CCCC[C@](C)(C(=O)N[C@H](C(=O)N[C@@H](CC(=O)O)C(N)=O)C(C)C)NC(=O)[C@H](CCC(N)=O)NC(=O)[C@H](CC(C)C)NC(=O)[C@H](C)NC2=O)NC(=O)[C@H](CCC(N)=O)NC(=O)[C@H](C)NC(=O)[C@H](CCCNC(=N)N)NC1=O (stereo partly drawn) [Peptide P-7] | n.b. | – | –
CC(=O)N[C@@H](CC(N)=O)C(=O)N[C@@H](CCC(N)=O)C(=O)N[C@@]1(C)CCCC=CCCCC2(CCCC=CCCC[C@](C)(C(=O)N[C@H](C(=O)N[C@@H](CC(N)=O)C(N)=O)C(C)C)NC(=O)[C@H](CCC(N)=O)NC(=O)[C@H](CC(C)C)NC(=O)[C@H](C)NC2=O)NC(=O)[C@H](CCC(N)=O)NC(=O)[C@H](C)NC(=O)[C@H](CCNC(=N)N)NC1=O (stereo partly drawn) [Peptide P-8] | n.b. | – | –
CC(=O)N[C@@H](CC(N)=O)C(=O)N[C@@H](CCC(N)=O)C(=O)N[C@@H](C)C(=O)N[C@@H](CCCNC(=N)N)C(=O)N[C@@H](C)C(=O)N[C@@]1(C)CCCCCCCC[C@@](C)(C(=O)N[C@@H](C)C(=O)N[C@H](C(=O)N[C@@H](CC(N)=O)C(N)=O)C(C)C)NC(=O)[C@H](CC(C)C)NC(=O)[C@H](C)NC(=O)[C@H](C)NC1=O [Peptide P-4] | – | 275 | 77.3
CC(=O)N[C@@H](CC(N)=O)C(=O)N[C@@H](CCC(N)=O)C(=O)N[C@@H](C)C(=O)N[C@@H](CCCNC(=N)N)C(=O)N[C@@H](C)C(=O)N[C@@H](CCC(N)=O)C(=O)N[C@@]1(C)CCCCCCCC[C@@](C)(C(=O)N[C@H](C(=O)N[C@@H](CC(N)=O)C(N)=O)C(C)C)NC(=O)[C@H](CCC(N)=O)NC(=O)[C@H](CC(C)C)NC(=O)[C@H](C)NC1=O [Peptide P-3] | – | 156 | 57.8
CC(=O)N[C@@H](CC(N)=O)C(=O)N[C@@H](CCC(N)=O)C(=O)N[C@@]1(C)CCCC=CCCCCCC[C@](C)(C(=O)N[C@@H](C)C(=O)N[C@H](C(=O)N[C@@H](CC(N)=O)C(N)=O)C(C)C)NC(=O)[C@H](CC(C)C)NC(=O)[C@H](C)NC(=O)[C@H](C)NC(=O)[C@H](CCC(N)=O)NC(=O)[C@H](C)NC(=O)[C@H](CCCNC(=N)N)NC1=O [Peptide P-5] (Ac-NQ[S5]RAQAAL[R8]AVN-NH2; staple 3-10) | – | 24.9 | –
CC(=O)N[C@H](C(=O)N[C@@H](CCC(N)=O)C(=O)N[C@@]1(C)CCCC=CCCCC2(CCCC=CCCC[C@](C)(C(=O)N[C@H](C(=O)N[C@@H](CC(N)=O)C(N)=O)C(C)C)NC(=O)[C@H](CCC(N)=O)NC(=O)[C@H](CC(C)C)NC(=O)[C@H](C)NC2=O)NC(=O)[C@H](CCC(N)=O)NC(=O)[C@H](C)NC(=O)[C@H](CCCNC(=N)N)NC1=O)C(C)C (stereo partly drawn) [Peptide P-10] | – | 22.4 ± 4.5 | –
